The text below walks through data of patent publication US20230357179A1, “RAF KINASE INHIBITORS AND METHODS OF USE THEREOF” (Deciphera Pharmaceuticals, LLC, priority 2021, published 2023).

One assay deals with T1, B-Raf (V600E) kinase (Homo sapiens, UniProt P15056, V600E).
T1 construct: B-Raf (V600E) residues 416-766 with a; GST (N); purchased SignalChem
The assay is described as follows: Biochemical assay for B-Raf (V600E).1 (coupled pyruvate kinase/lactate dehydrogenase). The settings on record: read-out: BRAF V600E.1 IC50. The protocol: Biochemical Assay for B-Raf (V600E).1
Activity of B-Raf (V600E) (SEQ. ID NO: 4) kinase was determined spectroscopically using a coupled pyruvate kinase/lactate dehydrogenase assay that continuously monitors the ATP hydrolysis-dependent oxidation of NADH (e.g., Schindler et al., Science, 2000, 289, 1938-1942). Assays were conducted in 384-well plates (100 μL final volume) using 0.03 nM B-Raf (SignalChem), 1.5 units pyruvate kinase, 2.1 units lactate dehydrogenase, 1 mM phosphoenol pyruvate, 0.28 mM NADH, 30.1 nM MEK (SignalChem), and 1 mM ATP in assay buffer (100 mM Tris, pH 7.5, 15 mM MgCl2, 0.5 mM DTT, 0.1% octyl-glucoside, 0.002% (w/v) BSA, and 0.002% Triton X-100). Inhibition of B-Raf (V600E) was measured by adding serial diluted test compound (final assay concentration of 1% DMSO). A decrease in absorption at 340 nm was monitored continuously for 6 h at 30° C. on a multi-mode microplate reader (BioTek). The reaction rate was calculated using the 3 to 4 h time frame. The reaction rate at each concentration of compound was converted to percent inhibition using controls (i.e., reaction with no test compound and reaction with a known inhibitor) and IC50 values were calculated by fitting a four-parameter sigmoidal curve to the data using Prism (GraphPad software).

The target in the next assay is T2, B-Raf kinase (Homo sapiens, UniProt P15056).
T2 construct: GST (N); purchased Sigma
Description: Biochemical assay for B-Raf.1 (coupled pyruvate kinase/lactate dehydrogenase). The settings on record: read-out: BRAF.1 IC50. The method, then: Biochemical Assay for B-Raf.1
(§1) Activity of B-Raf kinase (SEQ. ID NO: 2) was determined spectroscopically using a coupled pyruvate kinase/lactate dehydrogenase assay that continuously monitors the ATP hydrolysis-dependent oxidation of NADH (e.g., Schindler et al., Science, 2000, 289, 1938-1942). Assays were conducted in 384-well plates (100 μL final volume) using 0.13 nM B-Raf (Sigma), 1.5 units pyruvate kinase, 2.1 units lactate dehydrogenase, 1 mM phosphoenol pyruvate, 0.28 mM NADH, 30.1 nM MEK (SignalChem), and 1 mM ATP in assay buffer (100 mM Tris, pH 7.5, 15 mM MgCl2, 0.5 mM DTT, 0.1% octyl-glucoside, 0.002% (w/v) BSA, and 0.002% Triton X-100). Inhibition of B-Raf was measured by adding serial diluted test compound (final assay concentration of 1% DMSO). A decrease in absorption at 340 nm was monitored continuously for 6 h at 30° C. on a multi-mode microplate reader (BioTek). The reaction rate was calculated using the 4 to 5 h time frame. The reaction rate at each concentration of compound was converted to percent inhibition using controls (i.e., reaction with no test compound and reaction with a known inhibitor) and IC50 values were calculated by fitting a four-parameter sigmoidal curve to the data using Prism (GraphPad software).

The target in the next assay is T3, C-Raf kinase (Homo sapiens, UniProt P04049, Y340D/Y341D).
T3 construct: Y340D,; GST (N); purchased Sigma
Description: Biochemical assay for C-Raf.1 (coupled pyruvate kinase/lactate dehydrogenase). The settings on record: read-out: CRAF.1 IC50. The method, then:
Biochemical Assay for C-Raf.1
as §1, with “of C-Raf” for “of B-Raf”, “NO: 3)” for “NO: 2)”, “using 0.43” for “using 0.13”, “nM C-Raf” for “nM B-Raf”

In the next assay the target is T4, A-Raf kinase (Homo sapiens, UniProt P10398, Y301D/Y302D).
T4 construct: purchased Sigma
The assay is described as follows: Biochemical assay for A-Raf.1 (coupled pyruvate kinase/lactate dehydrogenase). The settings on record: read-out: ARAF.1 IC50. The protocol:
Biochemical assay for A-Raf.1
as §1, with “A-Raf” for “B-Raf”, “NO. 1)” for “NO: 2)”, “5.55” for “0.13”

T1 sequence (P15056 416-766 V600E): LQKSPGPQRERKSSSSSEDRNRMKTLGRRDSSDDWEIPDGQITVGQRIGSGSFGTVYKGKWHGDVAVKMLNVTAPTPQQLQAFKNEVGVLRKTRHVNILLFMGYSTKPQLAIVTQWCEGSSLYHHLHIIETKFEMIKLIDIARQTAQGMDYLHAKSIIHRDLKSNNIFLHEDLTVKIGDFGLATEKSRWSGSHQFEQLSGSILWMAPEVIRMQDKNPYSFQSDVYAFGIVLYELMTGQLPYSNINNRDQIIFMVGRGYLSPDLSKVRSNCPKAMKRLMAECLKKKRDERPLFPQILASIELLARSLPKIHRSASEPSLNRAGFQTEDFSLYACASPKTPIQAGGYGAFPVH
T4 sequence (P10398 with tags, fused parts or gaps Y301D/Y302D): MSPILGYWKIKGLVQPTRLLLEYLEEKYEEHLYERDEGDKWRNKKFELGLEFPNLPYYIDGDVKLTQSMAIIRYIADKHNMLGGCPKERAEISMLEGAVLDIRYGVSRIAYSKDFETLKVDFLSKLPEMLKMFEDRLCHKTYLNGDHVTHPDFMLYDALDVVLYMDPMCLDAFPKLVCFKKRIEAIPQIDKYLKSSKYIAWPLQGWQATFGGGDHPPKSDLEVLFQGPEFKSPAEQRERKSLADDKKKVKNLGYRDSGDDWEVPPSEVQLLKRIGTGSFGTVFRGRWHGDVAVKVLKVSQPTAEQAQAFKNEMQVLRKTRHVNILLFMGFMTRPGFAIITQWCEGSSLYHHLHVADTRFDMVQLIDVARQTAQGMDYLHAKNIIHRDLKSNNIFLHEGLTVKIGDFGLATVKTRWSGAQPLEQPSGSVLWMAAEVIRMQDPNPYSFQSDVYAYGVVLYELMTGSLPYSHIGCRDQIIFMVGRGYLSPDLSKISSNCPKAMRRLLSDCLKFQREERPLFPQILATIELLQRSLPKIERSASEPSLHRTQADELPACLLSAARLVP
T2 sequence (P15056 416-766): as the sequence (P15056 416-766 V600E) above, with E185V counted along it
T3 sequence (P04049 307-648 Y340D/Y341D): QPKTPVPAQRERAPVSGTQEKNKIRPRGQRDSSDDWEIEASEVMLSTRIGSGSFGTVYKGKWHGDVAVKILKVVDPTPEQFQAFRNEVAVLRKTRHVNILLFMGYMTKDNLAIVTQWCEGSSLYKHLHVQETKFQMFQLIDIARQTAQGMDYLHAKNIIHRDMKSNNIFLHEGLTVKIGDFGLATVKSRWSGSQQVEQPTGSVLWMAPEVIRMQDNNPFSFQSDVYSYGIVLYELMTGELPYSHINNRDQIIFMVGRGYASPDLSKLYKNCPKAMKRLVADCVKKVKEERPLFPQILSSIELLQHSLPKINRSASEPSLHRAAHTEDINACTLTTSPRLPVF

Regarding `Cc1cc(F)c(NC(=O)NCCC2(C(F)(F)F)CC2)cc1-c1cc(C2CCOCC2)nc(N2CCN(C)CC2)c1` [Example 12], the IC50 at B-Raf (V600E) kinase is ≤ 100 nM; at B-Raf kinase, 500 to 1000 nM; at C-Raf kinase, 100 to 500 nM; on A-Raf kinase, > 1000 nM.

Consider `CNC(=O)c1cc(-c2cnnc(-c3cc(NC(=O)N4CC[C@H](OC)C4)cnc3C)c2)ccn1` [Example 189], for which the IC50 on B-Raf (V600E) kinase, at B-Raf kinase, on C-Raf kinase and at A-Raf kinase was > 1000 nM in each case.

On to `CNC(=O)c1cc(-c2cnnc(-c3cc(NC(=O)N4CCC(CC(F)(F)F)C4)cnc3C)c2)ccn1` (centres unmarked) [Example 192], for which the 50% inhibitory concentration (IC50) at B-Raf (V600E) kinase was > 1000 nM; on B-Raf kinase, > 1000 nM; at C-Raf kinase, 500 to 1000 nM; on A-Raf kinase, > 1000 nM.

For `Cc1ncc(NC(=O)N2CCOCC2)cc1-c1cccc(-c2cc(NC(=O)C3CC3)ncn2)c1` [Example 74], the IC50 at B-Raf (V600E) kinase is 100 to 500 nM; at B-Raf kinase, > 1000 nM; on C-Raf kinase it was > 1000 nM; on A-Raf kinase, > 1000 nM.

As to `CC(=O)Nc1cc(-c2cc(-c3cc(NC(=O)NCCCC(F)(F)F)c(F)cc3C)cc(C3CC3)n2)ccn1` [Example 58], the IC50 was ≤ 100 nM at B-Raf (V600E) kinase, ≤ 100 nM on B-Raf kinase, ≤ 100 nM at C-Raf kinase and 500 to 1000 nM at A-Raf kinase.

In the case of `Cc1ncc(NC(=O)NCCC(C)(C)C)cc1-c1ccnc(N2CCOCC2)c1` [Example 16], the IC50 at B-Raf (V600E) kinase is ≤ 100 nM; at B-Raf kinase, 500 to 1000 nM; on C-Raf kinase, 100 to 500 nM; at A-Raf kinase, > 1000 nM.

As to `Cc1ncc(NC(=O)NCCC(C)(C)C)cc1-c1cc(N2CCOCC2)c(=O)n(C)c1` [Example 8], the IC50 is ≤ 100 nM at B-Raf (V600E) kinase, > 1000 nM on B-Raf kinase, 500 to 1000 nM at C-Raf kinase and > 1000 nM at A-Raf kinase.

Regarding `COC(=O)Nc1cc(-c2cnnc(-c3cccc(NC(=O)N4CC[C@@H](OC)C4)c3)c2)ccn1` [Example 199], the IC50 on B-Raf (V600E) kinase, on B-Raf kinase, on C-Raf kinase and on A-Raf kinase was > 1000 nM in each case.

Consider `COC(C)(C)CCNC(=O)Nc1ccc(C)c(-c2cc(-c3cnn(C4CCNCC4)c3)nc(N3CCOCC3)c2)c1` [Example 46], for which the IC50 is ≤ 100 nM at B-Raf (V600E) kinase, 100 to 500 nM on B-Raf kinase, 100 to 500 nM on C-Raf kinase and > 1000 nM on A-Raf kinase.

As to `COC(=O)Nc1cc(-c2cnnc(-c3cccc(NC(=O)N4CC[C@H](OC)C4)c3)c2)ccn1` [Example 190], the IC50 at B-Raf (V600E) kinase, on B-Raf kinase, on C-Raf kinase and on A-Raf kinase was > 1000 nM throughout.

As for `COC(=O)Nc1cc(-c2cnnc(-c3cc(NC(=O)N4CCC(C)(C)C4)cnc3C)c2)ccn1` [Example 191], the IC50 at B-Raf (V600E) kinase, at B-Raf kinase, on C-Raf kinase and at A-Raf kinase was > 1000 nM throughout.

Regarding `COC(=O)Nc1cc(-c2cc(-c3cc(NC(=O)N4CCC(C(C)(C)O)C4)cnc3C)ccn2)ccn1` (centres unmarked) [Example 212], the IC50 on B-Raf (V600E) kinase was > 1000 nM; at B-Raf kinase, > 1000 nM; on C-Raf kinase, 500 to 1000 nM; on A-Raf kinase, > 1000 nM.

As to `COC(C)(C)CCNC(=O)Nc1cc(-c2cccc(-c3ccnc(N)c3)c2)c(C)cc1F` [Example 70], the IC50 was ≤ 100 nM at B-Raf (V600E) kinase, 100 to 500 nM on B-Raf kinase, 100 to 500 nM at C-Raf kinase and > 1000 nM on A-Raf kinase.

For the molecule `COC(=O)Nc1cc(-c2cc(-c3cc(NC(=O)N4CCC(C)(C)C4)cnc3C)ccn2)ccn1` [Example 198], the IC50 on B-Raf (V600E) kinase is > 1000 nM; on B-Raf kinase, 500 to 1000 nM; on C-Raf kinase it was 100 to 500 nM; at A-Raf kinase it was > 1000 nM.

Regarding `Cc1cc(F)c(NC(=O)N[C@H]2C[C@H](N(C)C)C2)cc1-c1cc(OCCO)nc(-c2ccnc3[nH]ncc23)c1` [Example 86], the concentration for half-maximal inhibition (IC50) was 100 to 500 nM on B-Raf (V600E) kinase, > 1000 nM at B-Raf kinase, > 1000 nM on C-Raf kinase and > 1000 nM on A-Raf kinase.

Turning to `Cc1ncc(NC(=O)NCCC(C)(C)C)cc1-c1cc(N2CCOCC2)c(=O)n(C)n1` [Example 17], the half-inhibitory concentration (IC50) was ≤ 100 nM at B-Raf (V600E) kinase, > 1000 nM on B-Raf kinase, > 1000 nM at C-Raf kinase and > 1000 nM at A-Raf kinase.

As to `COC(=O)Nc1cc(-c2cnnc(-c3cc(NC(=O)N4CC[C@@H](OC)C4)cnc3C)c2)ccn1` [Example 203], the IC50 at B-Raf (V600E) kinase, on B-Raf kinase, on C-Raf kinase and at A-Raf kinase was > 1000 nM throughout.

For `COC1(CCNC(=O)Nc2cc(-c3cc(-c4cnn(C)c4)nc(N4CCOCC4)c3)c(C)cc2F)CC1` [Example 35], the IC50 is ≤ 100 nM at B-Raf (V600E) kinase, 100 to 500 nM at B-Raf kinase, 100 to 500 nM at C-Raf kinase and > 1000 nM on A-Raf kinase.

Turning to `Cc1ccc(NC(=O)NC23CC4CC(CC(C4)C2)C3)cc1-c1cc(OCCO)nc(N2CCOCC2)c1` [Example 14], the IC50 on B-Raf (V600E) kinase is ≤ 100 nM; on B-Raf kinase it was > 1000 nM; at C-Raf kinase, 100 to 500 nM; at A-Raf kinase, > 1000 nM.

`CNC(=O)c1cc(-c2cnnc(-c3cc(NC(=O)N4CC[C@@H](OC)C4)cnc3C)c2)ccn1` [Example 204]: the IC50 at B-Raf (V600E) kinase, on B-Raf kinase, at C-Raf kinase and at A-Raf kinase was > 1000 nM throughout.

What is called IC50 is the point on the concentration scale where inhibition reaches its midpoint.
